According to patent publication US20260325533A1, “CDK INHIBITOR COMPOUNDS” (ALEKSIA THERAPEUTICS, INC., priority 2023, published 2026):
Like-named read-outs stand apart in the source and are kept apart here.

Legend:
Type in all cases: biochemical
CDK6/CCND1 = CDK6/CCND1 (Homo sapiens, UniProt Q00534); assay: CDK6 homogeneous time-resolved fluorescence (HTRF) kinase assay; details: CDK6/CCND, 1 mM ATP
Summary of the method: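 Recombinant CDK6/CCND1 (1 nM final) was preincubated with compound for 20 min at 23 °C in HEPES buffer with MgCl2, EGTA, DTT and Tween 20. Kinase reaction then ran 60 min at 23 °C with 1 mM ATP and 50 nM ULight-4E-BP1 (Thr37/46) peptide, and was stopped with EDTA.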

CDK4/CCND3 = CDK4/CCND3 (Homo sapiens, UniProt P11802); assay: CDK4 homogeneous time-resolved fluorescence (HTRF) kinase assay; details: CDK4/CCND
Summary of the method: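 HTRF kinase assay, CDK4/CCND3 1.5 nM, ATP 1 mM, ULight-4E-BP1 peptide 50 nM, 23 °C, 60 min reaction after 20 min preincubation. Eu-anti-pThr37/46 antibody detection. 11-pt half-log curves from 10 μM → IC50.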

CDK1/CCNB1 = CDK1/CCNB1 (Homo sapiens, UniProt P06493); assay: CDK1 homogeneous time-resolved fluorescence (HTRF) kinase assay; details: CDK1/CCNB
Summary of the method: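 HTRF assay with 0.5 nM CDK1/CCNB1, 1 mM ATP, 50 nM ULight-eIF4E-BP1 (Thr37/46) peptide; compound preincubated 20 min, reaction 60 min at 23 °C, EDTA stop, Eu-anti-phospho antibody detection. 11-point half-log titration from 10 μM, 1% DMSO; IC50 from 665 nm or 665/615 signal.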

CDK2/CCNE1 = CDK2/CCNE1 (Homo sapiens, UniProt P24941); assay: CDK2 homogeneous time-resolved fluorescence (HTRF) kinase assay; details: CDK2/CCNE
Summary of the method: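 An HTRF format measures CDK2/CCNE1 (3 nM) phosphorylating a 4E-BP1 Thr37/46 peptide at high (1 mM) ATP. Reactions run one hour at 23 °C, then EDTA-quenched and probed with Eu-labelled phospho-specific antibody.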

[1] = >250 nM, read-out: CDK6/CCND IC50, >250 nM
[2] = >250 nM, read-out: CDK4/CCND IC50, >250 nM
[3] = >250 nM, read-out: CDK1/CCNB IC50 >250 nM
[4] = 25-250 nM, read-out: CDK2/CCNE IC50, 25-250 nM
[5] = 25-250 nM, read-out: CDK6/CCND IC50, 25-250 nM
[6] = 25-250 nM, read-out: CDK4/CCND IC50, 25-250 nM
[7] = <25 nM, read-out: CDK2/CCNE IC50, <25 nM
[8] = 25-250 nM, read-out: CDK1/CCNB IC50, 25-250 nM

CDK1/CCNB1, sequence (P06493 whole entry): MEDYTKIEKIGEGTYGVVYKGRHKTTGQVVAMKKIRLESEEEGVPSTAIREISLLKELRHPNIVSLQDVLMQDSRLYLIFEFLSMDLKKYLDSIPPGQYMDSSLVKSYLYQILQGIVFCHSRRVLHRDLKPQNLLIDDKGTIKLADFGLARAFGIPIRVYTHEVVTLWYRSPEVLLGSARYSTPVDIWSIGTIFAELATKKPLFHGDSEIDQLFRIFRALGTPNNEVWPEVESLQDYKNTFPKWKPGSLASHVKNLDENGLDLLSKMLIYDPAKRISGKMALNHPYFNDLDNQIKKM
CDK1/CCNB1, sequence (P14635 whole entry partner): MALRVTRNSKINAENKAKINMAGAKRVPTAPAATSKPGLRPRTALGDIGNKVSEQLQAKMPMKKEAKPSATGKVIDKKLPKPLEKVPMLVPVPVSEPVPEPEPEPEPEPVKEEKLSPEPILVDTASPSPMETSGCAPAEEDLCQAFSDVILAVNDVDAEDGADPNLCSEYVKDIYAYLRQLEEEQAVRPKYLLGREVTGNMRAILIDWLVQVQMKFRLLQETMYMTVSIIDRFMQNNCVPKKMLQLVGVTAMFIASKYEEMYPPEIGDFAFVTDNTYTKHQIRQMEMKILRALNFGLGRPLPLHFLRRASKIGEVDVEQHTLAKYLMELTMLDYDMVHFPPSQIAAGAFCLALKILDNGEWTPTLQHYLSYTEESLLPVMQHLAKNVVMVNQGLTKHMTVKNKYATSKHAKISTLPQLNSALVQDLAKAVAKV
CDK6/CCND1, sequence (Q00534 whole entry): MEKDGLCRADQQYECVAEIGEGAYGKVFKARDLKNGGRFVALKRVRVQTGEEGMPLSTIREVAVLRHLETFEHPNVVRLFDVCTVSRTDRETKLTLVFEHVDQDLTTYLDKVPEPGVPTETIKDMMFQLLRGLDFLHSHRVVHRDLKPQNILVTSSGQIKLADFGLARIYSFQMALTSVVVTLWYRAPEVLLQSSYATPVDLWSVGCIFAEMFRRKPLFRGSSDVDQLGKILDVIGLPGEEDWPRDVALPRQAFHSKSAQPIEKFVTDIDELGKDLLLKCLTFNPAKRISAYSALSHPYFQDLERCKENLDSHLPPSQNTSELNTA
CDK6/CCND1, sequence (P24385 whole entry partner): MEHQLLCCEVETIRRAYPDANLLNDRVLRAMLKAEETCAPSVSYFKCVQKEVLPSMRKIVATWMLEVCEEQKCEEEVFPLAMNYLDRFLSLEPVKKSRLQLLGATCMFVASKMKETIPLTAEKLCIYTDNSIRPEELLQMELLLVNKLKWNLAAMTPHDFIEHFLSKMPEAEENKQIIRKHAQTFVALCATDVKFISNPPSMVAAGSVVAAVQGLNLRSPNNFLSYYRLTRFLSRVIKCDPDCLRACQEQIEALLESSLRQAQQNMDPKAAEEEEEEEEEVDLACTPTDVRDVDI
CDK4/CCND3, sequence (P11802 whole entry): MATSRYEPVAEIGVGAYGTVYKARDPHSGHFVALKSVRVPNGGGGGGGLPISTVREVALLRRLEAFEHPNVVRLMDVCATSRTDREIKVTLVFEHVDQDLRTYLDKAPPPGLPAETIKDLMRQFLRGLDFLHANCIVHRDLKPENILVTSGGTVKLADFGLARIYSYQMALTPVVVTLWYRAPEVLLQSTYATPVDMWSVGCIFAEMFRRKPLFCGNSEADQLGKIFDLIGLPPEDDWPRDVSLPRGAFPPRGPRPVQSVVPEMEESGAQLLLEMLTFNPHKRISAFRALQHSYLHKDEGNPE
CDK4/CCND3, sequence (P30281 whole entry partner): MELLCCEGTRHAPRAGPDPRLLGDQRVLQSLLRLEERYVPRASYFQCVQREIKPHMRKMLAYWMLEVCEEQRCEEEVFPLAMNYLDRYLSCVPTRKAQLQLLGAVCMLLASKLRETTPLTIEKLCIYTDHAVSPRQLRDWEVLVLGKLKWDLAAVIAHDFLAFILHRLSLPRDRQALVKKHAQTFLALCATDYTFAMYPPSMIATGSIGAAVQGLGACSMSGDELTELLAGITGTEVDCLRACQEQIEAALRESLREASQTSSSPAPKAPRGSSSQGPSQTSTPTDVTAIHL

IC50 (CDK6/CCND1; [1]) [nM]	IC50 (CDK4/CCND3; [2]) [nM]	IC50 (CDK1/CCNB1; [3]) [nM]	IC50 (CDK2/CCNE1; [4]) [nM]	IC50 (CDK2/CCNE1; >250 nM, read-out: CDK2/CCNE IC50, >250 nM) [nM]	IC50 (CDK6/CCND1; [5]) [nM]	IC50 (CDK4/CCND3; [6]) [nM]	IC50 (CDK2/CCNE1; [7]) [nM]	IC50 (CDK1/CCNB1; [8]) [nM]	Compound
> 250	> 250	> 250	25 to 250	–	–	–	–	–	COc1cc(C)c(C#Cc2nccc3cnc(Nc4ccc(S(C)(=O)=O)cc4)cc23)cn1 [Ex 910, 5-((6-methoxy-4-methylpyridin-3-yl)ethynyl)-N-(4-(methylsulfonyl)phenyl)-2,6-naphthyridin-3-amine]
> 250	> 250	> 250	25 to 250	–	–	–	–	–	CS(=O)(=O)c1ccc(Nc2cc3c(C#Cc4cc(O)cc(F)c4)nccc3cn2)cc1 [Ex 911, 3-fluoro-5-((7-((4-(methylsulfonyl)phenyl)amino)-2,6-naphthyridin-1-yl)ethynyl)phenol]
> 250	> 250	> 250	–	> 250	–	–	–	–	COc1cc(C#Cc2nccc3cnc(Nc4ccc(S(C)(=O)=O)cc4)cc23)ccc1F [Ex 912, 5-((4-fluoro-3-methoxyphenyl)ethynyl)-N-(4-(methylsulfonyl)phenyl)-2,6-naphthyridin-3-amine]
> 250	> 250	> 250	25 to 250	–	–	–	–	–	CS(=O)(=O)c1ccc(Nc2cc3c(C#Cc4cc(C(=O)O)c(N)cc4F)nccc3cn2)cc1 [Ex 913, 2-amino-4-fluoro-5-((7-((4-(methylsulfonyl)phenyl)amino)-2,6-naphthyridin-1-yl)ethynyl)benzoic acid]
–	–	> 250	–	–	25 to 250	25 to 250	< 25	–	Cc1c(-c2nccc3cnc(Nc4ccc5c(c4)CCCS5(=O)=O)cc23)ccc2c1cnn2CC(C)(C)O [Ex 914, 6-((5-(1-(2-hydroxy-2-methylpropyl)-4-methyl-1H-indazol-5-yl)-2,6-naphthyridin-3-yl)amino)thiochromane 1,1-dioxide]
–	–	> 250	–	–	25 to 250	25 to 250	< 25	–	Cc1c(-c2nccc3cnc(Nc4ccc5c(c4)CCS5(=O)=O)cc23)ccc2c1cnn2CC(C)(C)O [Ex 915, 5-((5-(1-(2-hydroxy-2-methylpropyl)-4-methyl-1H-indazol-5-yl)-2,6-naphthyridin-3-yl)amino)-2,3-dihydrobenzo[b]thiophene 1,1-dioxide]
> 250	> 250	> 250	25 to 250	–	–	–	–	–	Cc1c(-c2nccc3cnc(Nc4cccc5ccccc45)cc23)ccc2c1cnn2CC(C)(C)O [Ex 916, 2-methyl-1-(4-methyl-5-(7-(naphthalen-1-ylamino)-2,6-naphthyridin-1-yl)-1H-indazol-1-yl)propan-2-ol]
> 250	> 250	> 250	25 to 250	–	–	–	–	–	N#Cc1ccc(C#Cc2nccc3cnc(Nc4cnc(O)c(N5CCNCC5)c4)cc23)cc1 [Ex 917, 4-((7-((6-hydroxy-5-(piperazin-1-yl)pyridin-3-yl)amino)-2,6-naphthyridin-1-yl)ethynyl)benzonitrile]
> 250	> 250	> 250	25 to 250	–	–	–	–	–	Cc1c(-c2nccc3cnc(Nc4ccc(S(C)(=O)=O)c(N5CCN(CCO)CC5)c4)cc23)ccc2c1cnn2CC(C)(C)O [Ex 919, 1-(5-(7-((3-(4-(2-hydroxyethyl)piperazin-1-yl)-4-(methylsulfonyl)phenyl)amino)-2,6-naphthyridin-1-yl)-4-methyl-1H-indazol-1-yl)-2-methylpropan-2-ol]
> 250	> 250	> 250	25 to 250	–	–	–	–	–	N#Cc1ccc(C#Cc2nccc3cnc(Nc4cnc(O)c(N5CCN(CCO)CC5)c4)cc23)cc1 [Ex 920, 4-((7-((6-hydroxy-5-(4-(2-hydroxyethyl)piperazin-1-yl)pyridin-3-yl)amino)-2,6-naphthyridin-1-yl)ethynyl)benzonitrile]
–	–	–	–	–	25 to 250	25 to 250	< 25	25 to 250	Cc1c(-c2nccc3cnc(Nc4ccc(S(N)(=O)=O)cc4)cc23)ccc2c1cnn2CC(C)(C)O [Ex 921, 4-((5-(1-(2-hydroxy-2-methylpropyl)-4-methyl-1H-indazol-5-yl)-2,6-naphthyridin-3-yl)amino)benzenesulfonamide]
–	–	> 250	–	–	25 to 250	25 to 250	< 25	–	Cc1c(-c2nccc3cnc(Nc4ccc(S(=O)(=O)N5CCOCC5)cc4)cc23)ccc2c1cnn2CC(C)(C)O [Ex 922, 2-methyl-1-(4-methyl-5-(7-((4-(morpholinosulfonyl)phenyl)amino)-2,6-naphthyridin-1-yl)-1H-indazol-1-yl)propan-2-ol]
> 250	> 250	> 250	25 to 250	–	–	–	–	–	Cc1c(-c2nccc3cnc(Nc4ccc(S(=O)(=O)N5CCCCC5)cc4)cc23)ccc2c1cnn2CC(C)(C)O [Ex 923, 2-methyl-1-(4-methyl-5-(7-((4-(piperidin-1-ylsulfonyl)phenyl)amino)-2,6-naphthyridin-1-yl)-1H-indazol-1-yl)propan-2-ol]
–	–	> 250	–	–	25 to 250	25 to 250	< 25	–	Cc1c(-c2nccc3cnc(Nc4ccc(S(=O)(=O)Nc5ccccn5)cc4)cc23)ccc2c1cnn2CC(C)(C)O [Ex 924, 4-((5-(1-(2-hydroxy-2-methylpropyl)-4-methyl-1H-indazol-5-yl)-2,6-naphthyridin-3-yl)amino)-N-(pyridin-2-yl)benzenesulfonamide]
> 250	> 250	> 250	25 to 250	–	–	–	–	–	Cc1c(-c2nccc3cnc(Nc4ccc(S(=O)(=O)O)cc4)cc23)ccc2c1cnn2CC(C)(C)O [Ex 925, 4-((5-(1-(2-hydroxy-2-methylpropyl)-4-methyl-1H-indazol-5-yl)-2,6-naphthyridin-3-yl)amino)benzenesulfonic acid]
–	> 250	–	–	–	25 to 250	–	< 25	25 to 250	Cc1cc(C)nc(NS(=O)(=O)c2ccc(Nc3cc4c(-c5ccc6c(cnn6CC(C)(C)O)c5C)nccc4cn3)cc2)n1 [Ex 926, N-(4,6-dimethylpyrimidin-2-yl)-4-((5-(1-(2-hydroxy-2-methylpropyl)-4-methyl-1H-indazol-5-yl)-2,6-naphthyridin-3-yl)amino)benzenesulfonamide]
> 250	> 250	> 250	–	–	–	–	< 25	–	Cc1c(-c2nccc3cnc(Nc4ccc(S(=O)(=O)Nc5ncccn5)cc4)cc23)ccc2c1cnn2CC(C)(C)O [Ex 927, 4-((5-(1-(2-hydroxy-2-methylpropyl)-4-methyl-1H-indazol-5-yl)-2,6-naphthyridin-3-yl)amino)-N-(pyrimidin-2-yl)benzenesulfonamide]
–	–	–	–	–	25 to 250	25 to 250	< 25	25 to 250	Cc1c(-c2nccc3cnc(Nc4ccc(-n5ccnc5)cc4)cc23)ccc2c1cnn2CC(C)(C)O [Ex 928, 1-(5-(7-((4-(1H-imidazol-1-yl)phenyl)amino)-2,6-naphthyridin-1-yl)-4-methyl-1H-indazol-1-yl)-2-methylpropan-2-ol]
> 250	> 250	> 250	25 to 250	–	–	–	–	–	Cc1c(-c2nccc3cnc(Nc4cccc(C(=O)Nc5ccccc5)c4)cc23)ccc2c1cnn2CC(C)(C)O [Ex 929, 3-((5-(1-(2-hydroxy-2-methylpropyl)-4-methyl-1H-indazol-5-yl)-2,6-naphthyridin-3-yl)amino)-N-phenylbenzamide]
> 250	> 250	> 250	25 to 250	–	–	–	–	–	Cc1c(-c2nccc3cnc(Nc4ccc(S(C)(=O)=O)c(N5CCN(C)CC5)c4)cc23)ccc2c1cnn2CC(C)(C)O [Ex 931, 2-methyl-1-(4-methyl-5-(7-((3-(4-methylpiperazin-1-yl)-4-(methylsulfonyl)phenyl)amino)-2,6-naphthyridin-1-yl)-1H-indazol-1-yl)propan-2-ol]
> 250	–	> 250	–	–	–	25 to 250	< 25	–	Cc1c(-c2nccc3cnc(Nc4ccc(=O)n(C)n4)cc23)ccc2c1cnn2CC(C)(C)O [Ex 932, 6-((5-(1-(2-hydroxy-2-methylpropyl)-4-methyl-1H-indazol-5-yl)-2,6-naphthyridin-3-yl)amino)-2-methylpyridazin-3(2H)-one]
